Source: article PMC12693701, “Glucosinolate-Derived Metabolites from Barbarea vulgaris (Brassicaceae): Evaluation of Antimicrobial, Antioxidant, and Anti-Inflammatory Potentials” (Molecules, 2025)
Converted amounts (≈) assume the structure as drawn. Read-outs that look alike come from different tables or passages of the source.

Key:
K. pneumoniae = experiment: Microdilution MIC/MMC with resazurin; assay type: cell-based, Klebsiella pneumoniae; settings: for MIC: Klebsiella pneumoniae
Description: (§1) The antimicrobial activity was evaluated against 15 microorganisms. This included 11 bacterial strains: four standard strains (Staphylococcus aureus ATCC 25923, Bacillus subtilis ATCC 6633, Bacillus pumilus NCTC 8241, and Escherichia coli ATCC 25922) and six clinical or environmental isolates (Staphylococcus aureus, Escherichia coli, Bacillus cereus, Proteus mirabilis, Salmonella enterica, and Klebsiella pneumoniae). One probiotic strain, Bifidobacterium animalis subsp. lactis was tested. In addition, four fungal strains, Candida albicans ATCC 10231, Trichoderma viride ATCC 13233, Aspergillus flavus ATCC 9170, and Fusarium solani ATCC 11712 were tested. The bacterial strains were kept in glycerol stock at −80 °C and the fungal strains in paraffin oil stock at 4 °C.
(§2) Bacterial and yeast suspensions were prepared using the direct colony method, as previously described by Andrews. The turbidity of the initial suspensions was adjusted to match the 0.5 McFarland standard using a densitometer (Biosan, Riga, Latvia), corresponding to approximately 10^8 colony-forming units (CFU)/mL for bacterial cells and 10^6 CFU/mL for yeast cells. Subsequently, 1:100 dilutions of the initial suspensions were prepared in sterile 0.85% saline. Fungal spore suspensions were obtained by gently harvesting spores from agar slopes containing mature mycelial growth. The collected spore suspensions were then diluted 1:1000 in sterile 0.85% saline prior to use.
(§3) Antimicrobial activity was evaluated by determining the minimum inhibitory concentration (MIC) and minimum microbicidal concentration (MMC) using the microdilution plate method with resazurin as an indicator [28]. In the 96-well plates, 100 μL of Mueller–Hinton broth (Torlak, Belgrade, Serbia) for bacterial testing and Sabouraud broth (Torlak, Belgrade, Serbia) for fungal testing were dispensed into each well. The compounds under investigation were initially dissolved in a 10% dimethyl sulfoxide (DMSO) solution, followed by dilution in sterile distilled water, resulting in a working compound solution containing 1% DMSO. A 100 μL aliquot of the stock solution of the tested compound was added to the first row, and twofold serial dilutions were then carried out using a multichannel pipette. The resulting concentration range was from 5 to 0.039 mg/mL. The inoculated microtiter plates were incubated at 37 °C for 24 h for bacteria, at 28 °C for 48 h for yeasts, and at 28 °C for 72 h for molds.
(§4) Each test also included growth control and sterility control. All tests were conducted in duplicate. MIC was defined as the lowest concentration of tested compounds that prevented resazurin color change from blue to pink. For molds, MIC values of the tested compound were determined as the lowest concentration that inhibited visible mycelia growth. MMC was determined by inoculation of the nutrient agar medium by plating […] of samples from wells, where no indicator color change was recorded. At the end of the incubation period, the lowest concentration with no growth (no colony) was defined as MMC.
(§5) Doxycycline, ampicillin and amphotericin B (- Sigma-Aldrich, St. Louis, MO, USA) and ketoconazole (Hemofarm A.D., Vršac, Serbia) were dissolved in a nutrient liquid medium. Doxycycline is a broad-spectrum antibiotic effective against both aerobic and anaerobic Gram-positive and Gram-negative bacteria. Ampicillin, a beta-lactam antibiotic, primarily targets Gram-positive bacteria but also some Gram-negative strains. Amphotericin B is an antifungal drug often used for serious systemic fungal infections and is one of the effective treatments for fungal infections caused by Aspergillus sp. Ketoconazole is an antifungal agent used to inhibit the growth of Candida species.

A. flavus ATCC 9170 = experiment: Microdilution MIC/MMC; assay type: cell-based, Aspergillus flavus
Description: as §1, §2, §3, §4, §5

S. enterica = experiment: Microdilution MIC/MMC with resazurin; assay type: cell-based, Salmonella enterica; settings: compounds 1–8; for MIC: Salmonella enterica
Description: as §1, §2, §3, §4, §5

B. pumilus NCTC 8241 = experiment: Microdilution MIC/MMC with resazurin; assay type: cell-based, Bacillus pumilus; settings: for MIC: Bacillus pumilus, NCTC8241
Description: as §1, §2, §3, §4, §5

B. cereus = experiment: Microdilution MIC/MMC with resazurin; assay type: cell-based, Bacillus cereus; settings: for MIC: Bacillus cereus
Description: as §1, §2, §3, §4, §5

T. viride ATCC 13233 = experiment: Microdilution MIC/MMC; assay type: cell-based, Trichoderma viride
Description: as §1, §2, §3, §4, §5

F. solani ATCC 11712 = experiment: Microdilution MIC/MMC; assay type: cell-based, Fusarium solani
Description: as §1, §2, §3, §4, §5

[1] = ABTS radical scavenging assay; settings: mean ± SD
Description: The ABTS radical cation solution was prepared following the previously described protocol. Different concentrations of the analyzed samples were prepared in DMSO. The test samples were prepared following the specified procedure: 20 µL of sample was combined with 980 µL of methanol, followed by the addition of 1000 µL of ABTS solution. Absorbance was measured at 734 nm. All measurements were performed in triplicate.

S. aureus ATCC 25923 = experiment: Microdilution MIC/MMC with resazurin; assay type: cell-based, Staphylococcus aureus; settings: for MIC: Staphylococcus aureus, ATCC25923
Description: as §1, §2, §3, §4, §5

S. aureus = experiment: Microdilution MIC/MMC with resazurin; assay type: cell-based, Staphylococcus aureus; settings: for MIC: Staphylococcus aureus
Description: as §1, §2, §3, §4, §5

P. mirabilis = experiment: Microdilution MIC/MMC with resazurin; assay type: cell-based, Proteus mirabilis; settings: for MIC: Proteus mirabilis
Description: as §1, §2, §3, §4, §5

B. subtilis ATCC 6633 = experiment: Microdilution MIC/MMC with resazurin; assay type: cell-based, Bacillus subtilis; settings: for MIC: Bacillus subtilis, ATCC6633
Description: as §1, §2, §3, §4, §5

E. coli = experiment: Microdilution MIC/MMC with resazurin; assay type: cell-based, Escherichia coli; settings: E. coli isolate, compounds 1–8
Description: as §1, §2, §3, §4, §5

E. coli ATCC 25922 = experiment: Microdilution MIC/MMC with resazurin; assay type: cell-based, Escherichia coli; settings: for MIC: Escherichia coli, ATCC25922
Description: as §1, §2, §3, §4, §5

[2] = A. flavus ATCC 9170, compounds 1–8
[3] = B. pumilus NCTC 8241, compounds 1–8
[4] = T. viride ATCC 13233, compounds 1–8
[5] = F. solani ATCC 11712, compounds 1–8
[6] = S. aureus ATCC 25923, compounds 1–8
[7] = S. aureus isolate, compounds 1–8
[8] = B. subtilis ATCC 6633, compounds 1–8
[9] = E. coli ATCC 25922, compounds 1–8
[10] = K. pneumoniae, compounds 1–8, read-out: MIC
[11] = Aspergillus flavus, ATCC9170, A. flavus ATCC 9170, compounds 1–8, read-out: MIC
[12] = B. pumilus NCTC 8241, compounds 1–8, read-out: MIC
[13] = B. cereus, compounds 1–8, read-out: MIC
[14] = Trichoderma viride, ATCC13233, T. viride ATCC 13233, compounds 1–8, read-out: MIC
[15] = Fusarium solani, ATCC11712, F. solani ATCC 11712, compounds 1–8, read-out: MIC
[16] = S. aureus ATCC 25923, compounds 1–8, read-out: MIC
[17] = S. aureus isolate, compounds 1–8, read-out: MIC
[18] = P. mirabilis, compounds 1–8, read-out: MIC
[19] = B. subtilis ATCC 6633, compounds 1–8, read-out: MIC
[20] = Escherichia coli, read-out: MIC
[21] = E. coli ATCC 25922, compounds 1–8, read-out: MIC

SMILES	MMC (K. pneumoniae; K. pneumoniae, compounds 1–8) [mg/mL]	MMC (A. flavus ATCC 9170; [2]) [mg/mL]	MIC (S. enterica) [µg/mL]	MMC (S. enterica) [mg/mL]	MMC (B. pumilus NCTC 8241; [3]) [mg/mL]	MMC (B. cereus; B. cereus, compounds 1–8) [mg/mL]	MMC (T. viride ATCC 13233; [4]) [mg/mL]	MMC (F. solani ATCC 11712; [5]) [mg/mL]	ABTS Scavenging Ability ([1]; 25 µM) [%]	ABTS Scavenging Ability ([1]; 50 µM) [%]	ABTS Scavenging Ability ([1]; 100 µM) [%]	MMC (S. aureus ATCC 25923; [6]) [mg/mL]	MMC (S. aureus; [7]) [mg/mL]	MMC (P. mirabilis; P. mirabilis, compounds 1–8) [mg/mL]	MMC (B. subtilis ATCC 6633; [8]) [mg/mL]	MMC (E. coli) [mg/mL]	MMC (E. coli ATCC 25922; [9]) [mg/mL]	MIC (K. pneumoniae; [10]) [µg/mL]	MIC (A. flavus ATCC 9170; [11]) [µg/mL]	MIC (B. pumilus NCTC 8241; [12]) [µg/mL]	also measured
Oc1ccc(CCN=C=S)cc1 [Compound 8, 2-(4-hydroxyphenyl)ethyl isothiocyanate]	0.625	<0.039	312 (≈ 1.74 mM)	1.25	0.156	1.25	<0.039	<0.039	2.9 ± 1.3	6.8 ± 1.1	11.9 ± 0.8	0.625	0.312	0.625	>5	0.625	0.312				MIC (K. pneumoniae): 312 µg/mL (≈ 1.74 mM); MIC (A. flavus ATCC 9170; [2]): <39 µg/mL; MIC (A. flavus ATCC 9170; Aspergillus flavus, ATCC9170): < 39 µg/mL; MIC (B. pumilus NCTC 8241): 156 µg/mL (≈ 0.87 mM); MIC (B. cereus): 156 µg/mL (≈ 0.87 mM); MIC (T. viride ATCC 13233; [4]): <39 µg/mL; MIC (T. viride ATCC 13233; Trichoderma viride, ATCC13233): < 39 µg/mL; MIC (F. solani ATCC 11712; [5]): <39 µg/mL; MIC (F. solani ATCC 11712; Fusarium solani, ATCC11712): < 39 µg/mL; MIC (S. aureus ATCC 25923): 156 µg/mL (≈ 0.87 mM); MIC (S. aureus): 78 µg/mL (≈ 0.435 mM); MIC (P. mirabilis): 156 µg/mL (≈ 0.87 mM); MIC (B. subtilis ATCC 6633): 312 µg/mL (≈ 1.74 mM); MIC (E. coli): <39 µg/mL; MIC (E. coli; Escherichia coli): 39 µg/mL (≈ 0.218 mM); MIC (E. coli ATCC 25922): 78 µg/mL (≈ 0.435 mM)
O=C1NCC(c2ccccc2)O1 (stereo not drawn) [Compound 7, 5-Phenyl-1,3-oxazolidin-2-one]	2.5	2.5	1250 (≈ 7.66 mM)	2.5	5	5	2.5	2.5	1.3 ± 0.1	2.7 ± 1.0	3.9 ± 0.4	5	5	2.5	5	2.5	2.5	2500 (≈ 15.3 mM)	2500 (≈ 15.3 mM)	5000 (≈ 30.6 mM)	MIC (B. cereus; [13]): 5000 µg/mL (≈ 30.6 mM); MIC (T. viride ATCC 13233; [14]): 1250 µg/mL (≈ 7.66 mM); MIC (F. solani ATCC 11712; [15]): 2500 µg/mL (≈ 15.3 mM); MIC (S. aureus ATCC 25923; [16]): 5000 µg/mL (≈ 30.6 mM); MIC (S. aureus; [17]): 2500 µg/mL (≈ 15.3 mM); MIC (P. mirabilis; [18]): 2500 µg/mL (≈ 15.3 mM); MIC (B. subtilis ATCC 6633; [19]): 5000 µg/mL (≈ 30.6 mM); MIC (E. coli; [20]): 1250 µg/mL (≈ 7.66 mM); MIC (E. coli ATCC 25922; [21]): 1250 µg/mL (≈ 7.66 mM)
S=C1NC[C@H](c2ccccc2)O1 [Compound 5, (S)-5-phenyl-1,3-oxazolidine-2-thione]	5	>5	5000 (≈ 27.9 mM)	>5	5	>5	5	>5	6.6 ± 0.2	12.3 ± 0.8	19.1 ± 0.6	>5	>5	5	>5	5	5	5000 (≈ 27.9 mM)	> 5000	2500 (≈ 13.9 mM)	MIC (B. cereus; [13]): > 5000 µg/mL; MIC (T. viride ATCC 13233; [14]): 5000 µg/mL (≈ 27.9 mM); MIC (F. solani ATCC 11712; [15]): 5000 µg/mL (≈ 27.9 mM); MIC (S. aureus ATCC 25923; [16]): 5000 µg/mL (≈ 27.9 mM); MIC (S. aureus; [17]): > 5000 µg/mL; MIC (P. mirabilis; [18]): 5000 µg/mL (≈ 27.9 mM); MIC (B. subtilis ATCC 6633; [19]): > 5000 µg/mL; MIC (E. coli; [20]): 5000 µg/mL (≈ 27.9 mM); MIC (E. coli ATCC 25922; [21]): 5000 µg/mL (≈ 27.9 mM)
S=C1NCC(c2ccccc2)O1 (racemic) [Compound 4, rac-5-Phenyl-1,3-oxazolidine-2-thione]	5	>5	2500 (≈ 13.9 mM)	5	2.5	5	2.5	3.75	0.9 ± 0.1	1.6 ± 0.9	2.5 ± 0.3	2.5	1.25	5	5	5	5	2500 (≈ 13.9 mM)	> 5000	1250 (≈ 6.97 mM)	MIC (B. cereus; [13]): 5000 µg/mL (≈ 27.9 mM); MIC (T. viride ATCC 13233; [14]): 2500 µg/mL (≈ 13.9 mM); MIC (F. solani ATCC 11712; [15]): 2500 µg/mL (≈ 13.9 mM); MIC (S. aureus ATCC 25923; [16]): 1250 µg/mL (≈ 6.97 mM); MIC (S. aureus; [17]): 1250 µg/mL (≈ 6.97 mM); MIC (P. mirabilis; [18]): 2500 µg/mL (≈ 13.9 mM); MIC (B. subtilis ATCC 6633; [19]): 2500 µg/mL (≈ 13.9 mM); MIC (E. coli; [20]): 2500 µg/mL (≈ 13.9 mM); MIC (E. coli ATCC 25922; [21]): 2500 µg/mL (≈ 13.9 mM)
